In the test the test system is extracellular HBeAg level (surrogate marker for cccDNA) in HepDES19 cells. Nature of the test: HepDES19 primary screen assay. The class given is cell-based, HBV. The conditions noted are these: Hepatitis B virus, 120 h, 5 days compound incubation, HBeAg ELISA. The text has this:
The assay was employed to primarily screen for novel cccDNA inhibitors. HepDES19 is an engineered cell line which contains a 1.1 unit length HBV genome, and pgRNA transcription from the transgene is controlled by Tetracycline (Tet). In the absence of Tet, pgRNA transcription will be induced, but HBV e antigen (HBeAg) could not be produced from this pgRNA due to the fact that the very short leader sequence before the HBeAg start codondisrupted the start codon. Only after cccDNA is formed, the missing leader sequence and start codon mutation would be restored from the 3′-terminal redundancy of pgRNA, and then HBeAg could be synthesized. Therefore, HBeAg could be used as a surrogate marker for cccDNA (Zhou, T. et al., Antiviral Res(2006), 72(2), 116-124; Guo, H. et al., J. Virol (2007), 81(22), 12472-12484).
HepDES19 cells were seeded at 2×10^6 cells per T150 flask and cultured with the culture medium (Dulbecco's Modified Eagle Medium: Nutrient Mixture F-12 (DMEM:F12, Gibco Cat. 11320-82), 10% Fetal Bovine Serum (FBS, Clontech Cat. 631101), 0.1 mM Non-Essential Amino Acids Solution (NEAA, Gibco Cat. 11140-050), 50 μg/mL Penicillin-Streptomycin (PS, Invitrogen Cat. 15140-163), 500 μg/mL Geneticin (G418, Invitrogen Cat. 10131-027) containing 3 μg/mL Tet (Sigma, Cat. 87128) for 5 days. Cells were then seeded at 4×10^6 cells per T150 in the same culture medium as described above in the absence of Tet for 8 days. Cells were then harvested and frozen at density of 2×10^6 cells per mL. For compound testing, the frozen cells were thawed and seeded into 96-well plates at a density of 6×10^4 cells per well. At 24 hrs after seeding, half log serial dilutions of compounds made with Dimethyl sulfoxide (DMSO, Sigma, Cat. D2650) were further diluted with the same culture medium as described above before they were added to the cells to reach desired final compound concentrations and 1% DMSO concentration. Plates were then incubated at 37° C. for another 5 days before measurement of HBeAg level and cell viability. Extracellular HBeAg level were measured with enzyme-linked immunosorbent assay (ELISA) kit (Shanghai Kehua Diagnostic Medical Products Co., Ltd). Cell viability was assessed using Cell Counting Kit-8 (Donjindo, Cat. CK04-20). IC50 values were derived from the dose-response curve using 4 parameter logistic curve fit method.
The compounds of the present invention were tested for their capacity to inhibit extracellular HBeAg level as described herein.
(In general: An ELISA detects its analyte on a solid surface through an enzyme-linked reagent.)

In general, IC50 refers to the concentration that inhibits the measured activity by half. A low value points to greater potency. Molecule `Clc1cccc2c1Oc1c(cc(Cl)c(N3CCCC3)c1Cl)C2` [Example 56, 1-(2,4,5-trichloro-9H-xanthen-3-yl)pyrrolidine] yielded an IC50 of 6.28 µM.

Turning to `Clc1cccc2c1Oc1cc(N3CCCC3)ccc1C2C1COC1` (stereo not drawn) [Example 57, 1-[5-chloro-9-(oxetan-3-yl)-9H-xanthen-3-yl]pyrrolidine], 7.33 µM corresponded to half-maximal inhibition (IC50).

The molecule `CC(=O)OC(c1cccc(F)c1Cl)C1c2ccc(N3CCCC3)cc2Oc2c(Cl)cccc21` (stereo not drawn) [Example 58, [(2-chloro-3-fluoro-phenyl)-(5-chloro-3-pyrrolidin-1-yl-9H-xanthen-9-yl)methyl]acetate] returned an IC50 of 11.7 µM.

`OC1(C(F)(F)F)c2ccc(N3CCCC3)cc2Oc2c(Cl)cccc21` (stereo not drawn) [Example 59, 5-chloro-3-pyrrolidin-1-yl-9-(trifluoromethyl)xanthen-9-ol] came in with an IC50 of 19.2 µM.

In turn, `COC1(C(F)(F)F)c2ccc(N3CCCC3)cc2Oc2c(Cl)cccc21` (stereo not drawn) [Example 60, 1-[5-chloro-9-methoxy-9-(trifluoromethyl)xanthen-3-yl]pyrrolidine] displayed an IC50 of 22.2 µM.

For the molecule `FC(F)(F)C1c2ccc(N3CCCC3)cc2Oc2c(Cl)cccc21` (stereo not drawn) [Example 61, 1-[5-chloro-9-(trifluoromethyl)-9H-xanthen-3-yl]pyrrolidine], the IC50 was found to be 31 µM.

The molecule `Fc1cccc2c1Oc1cc(N3CCCC3)ccc1C2` [Example 62, 1-(5-fluoro-9H-xanthen-3-yl)pyrrolidine] registered an IC50 of 3.99 µM.

`O=c1c2ccc(N3CCCC3)nc2oc2c(F)cccc12` [Example 63, 9-fluoro-2-pyrrolidin-1-yl-chromeno[2,3-b]pyridin-5-one]: the IC50 amounted to 19.2 µM.

`O=c1c2ccc(N3CCCC3)nc2oc2c(Cl)cccc12` [Example 64, 9-chloro-2-pyrrolidin-1-yl-chromeno[2,3-b]pyridin-5-one] showed an IC50 of 35 µM.

Molecule `O=C(C1CCN(c2ccc3c(=O)c4cccc(Cl)c4oc3c2)C1)N1CCOCC1` (stereo not drawn) [Example 65, 5-chloro-3-[3-(morpholine-4-carbonyl)pyrrolidin-1-yl]xanthen-9-one] returned an IC50 of 3.89 µM.

As to `O=c1c2cc(Cl)c(N3CCCC3)cc2oc2c(F)cccc12` [Example 68, 2-chloro-5-fluoro-3-pyrrolidin-1-yl-xanthen-9-one], the half-inhibitory concentration (IC50) stood at 1.18 µM.

In the case of `O=C(O)[C@@H]1CCN(c2ccc3c(=O)c4c(Cl)ccc(Cl)c4oc3c2)C1` [Example 69, (3R)-1-(5,8-dichloro-9-oxo-xanthen-3-yl)pyrrolidine-3-carboxylic Acid], the IC50 was found to be 0.96 µM.

`O=C(O)C1CCN(c2ccc3c(=O)c4cc(Cl)cc(Cl)c4oc3c2)C1` (stereo not drawn) [Example 70, 1-(5,7-dichloro-9-oxo-xanthen-3-yl)pyrrolidine-3-carboxylic Acid] had a 50% inhibitory concentration (IC50) of 5.9 µM.

On to `O=C(O)C1CCN(c2ccc3c(=O)c4cc(F)cc(Cl)c4oc3c2)C1` (stereo not drawn) [Example 71, 1-(5-chloro-7-fluoro-9-oxo-xanthen-3-yl)pyrrolidine-3-carboxylic Acid], for which the IC50 was determined as 13 µM.

`O=C(O)[C@H]1CCN(c2ccc3c(=O)c4cccc(Cl)c4sc3c2)C1` [Example 72, (3S)-1-(5-chloro-9-oxo-thioxanthen-3-yl)pyrrolidine-3-carboxylic Acid] gave an IC50 of 3.6 µM.

Turning to `O=C(O)[C@@H]1CCN(c2ccc3c(=O)c4cccc(Cl)c4sc3c2)C1` [Example 73, (3R)-1-(5-chloro-9-oxo-thioxanthen-3-yl)pyrrolidine-3-carboxylic Acid], the midpoint of inhibition, the IC50, lay at 2.6 µM.

For `Cc1cc2c(=O)c3cccc(Cl)c3oc2cc1N1CC[C@@H](C(=O)O)C1` [Example 74, (3R)-1-(5-chloro-2-methyl-9-oxo-xanthen-3-yl)pyrrolidine-3-carboxylic Acid], it took 2.6 µM to reach half-maximal inhibition (IC50).

Take `CC1c2ccc(N3CCC(C(=O)O)C3)cc2Oc2c(Cl)cccc21` (stereo not drawn) [Example 75, 1-(5-chloro-9-methyl-9H-xanthen-3-yl)pyrrolidine-3-carboxylic Acid]: half-maximal inhibition (IC50) required 10.1 µM.

Source of the values: patent US10611748B2, “Xanthone derivatives for the treatment of hepatitis B virus disease” (Hoffmann-La Roche Inc., priority 2017, dated 2020).
